According to US7326384B2, “Method and apparatus for detecting physicochemical changes emitted by biological sample” (Matsushita Electric Industrial Co., Ltd., priority 2001, dated 2008):

What was measured:
[1] = system: ion channel of a Lymnaea stagnail neuron; assay: Extracellular recording of neuron before and after applying Carbachol, normal distribution of standard deviations (apparatus of FIG. 9); format: cell-based; conditions: after applying 50 μM Carbachol; 10 seconds data; FIG. 13
Text: FIG. 9 is a conceptual diagram showing a configuration of an apparatus comprising the above-described device for detecting physicochemical changes emitted by a biological sample, which is configured to measure and extract the ion channel activity of the biological sample. The apparatus is the same as the apparatus of FIG. 8, except that the normal distribution approximation section 103, the average/half-width calculation section 106 and the activity categorization section 109 are employed in place of the average calculation section 105 and the activity calculation section 108. Communications between each section are indicated by a dashed line or a solid line in FIG. 9. […]
Before and after 50 μM-concentration Carbachol is applied to a Lymnaea stagnail neuron, signals were obtained from the measurement section (signal source) 101, and the standard deviation of the signals was calculated in a manner similar to that of Example 1. […]

[2] = system: ion channel of a Lymnaea stagnail neuron; assay: Extracellular recording of neuron electrical signal at increasing Carbachol concentrations (apparatus of FIG. 8); format: cell-based; conditions: Carbachol 0, 0.1, 0.3, 1, 3, 10, 30 and 100 μM; 10 seconds time-series data; FIG. 12
Text: FIG. 8 is a conceptual diagram showing a configuration of an apparatus comprising the above-described device for detecting physicochemical changes emitted by a biological sample, which is configured to measure and extract the ion channel activity of the biological sample. The apparatus comprises a measurement section (signal source) 101 comprising a device for detecting physicochemical changes emitted by the biological sample and measuring an action potential generated by a neuron, a unit standard deviation calculation section 102 for sampling a signal from the measurement section 101 and calculating the standard deviation of the signal, an average calculation section 105 for calculating the average of the obtained standard deviation, an activity calculation section 108 for calculating the ion channel activity of a cell from the average of the standard deviation output by the average calculation section 105, and a data displaying section 110 for displaying the calculated activity. Communications between each section are indicated by a dashed line or a solid line in FIG. 8. Note that the unit standard deviation calculation section 102, and the average calculation section 105, and the activity calculation section 108 may be representatively software programs which are recorded in a hard disk in a computer. The data displaying section 110 may be a CRT. […]

In the case of `C[N+](C)(C)CCOC(N)=O` [Carbachol], the “average of the normal distribution of standard deviation values every 5 miliseconds” value [1] is reported as 0.703 and the “ion channel activation (average of the standard deviation every 100 miliseconds)” value [2] is reported as “activated depending on the Carbachol concentration”.
